These results are taken from US20070104785A1, “TABLETS OF LINEZOLID FORM III AND PROCESSES FOR THEIR PREPARATION” (priority 2005, published 2007).

The data set in a line: Gelling tendency when the solid dosage form contacts water. It counts as physicochemical. The conditions noted are these: in words. The source says:
Linezolid Form I is known from the publication, Brickner S J et al. (J. Med. Chem. 39 (3), 673-679, 1996). U.S. Pat. No. 6,559,305 discloses linezolid Form II. Tablets containing linezolid Form II are known from U.S. Pat. No. 6,514,529. The PCT application WO 05035530 discloses crystalline Form III of linezolid. […]. The gel formation leads to an erratic dissolution of the linezolid from the dosage form. A dosage form should deliver a drug in a reproducible way so that a maximum therapeutic effect can be achieved. An unpredictable release from the dosage form can compromise efficacy. The gelling tendency of linezolid Form III would discourage its formulation into solid dosage forms.
Without wishing to be bound by any theory, the following explanation is given for mechanisms involved with the solid dosage form of the present invention that provide a reproducible dissolution profile. […]. When linezolid Form III crystal comes in contact with water, the surface of the crystal dissolves and the dissolved linezolid Form III instead of spreading in water tends to stick to the crystal surface to form a gel layer around the crystal. The gel formation around the crystal acts as a barrier impeding further contact with water, which in turn retards the solubilization of linezolid Form III. […]

Each structure is given as a SMILES string.

For `CC(=O)NC[C@H]1CN(c2ccc(N3CCOCC3)c(F)c2)C(=O)O1` [Linezolid Form III, (S)—N—[[3-[3-Fluoro-4-(4-morpholinyl)phenyl]-2-oxo-5-oxazolidinyl]methyl]-acetamide], the “gelling tendency in contact with water” value is on record as “exhibits a gelling tendency”.
